Measured values published in ChEMBL document CHEMBL1201862, “PubChem BioAssay data set” (2004).
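Growth conditions: 96-well plates. Treatment: test compound, 48 hours, 5 concentrations. Analysis: linear interpolation between bracketing concentrations; unreached endpoints set to highest concentration. At the GI50, growth is halved.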 Activity calls are given as the source filed them. Cut-off read from the data, not from the text of the source: active = GI50 up to about 1.1 µM and inactive = higher.

What was measured:
Assay in all cases: NCI anticancer screen, dose series, 48 h
[1] = system: CCRF-CEM
[2] = system: SF-295
[3] = system: COLO 205
[4] = system: HT-29
[5] = system: SW-620
[6] = system: DMS-114
[7] = system: OVCAR-3
[8] = system: OVCAR-4
[9] = system: MOLT-4
[10] = system: SK-MEL-5
[11] = system: NCI-H460
[12] = system: K562
[13] = system: DLD-1
[14] = system: UACC-62
[15] = system: A549
[16] = system: LOX IMVI
[17] = system: MCF7
[18] = system: NCI/ADR-RES
[19] = system: T47D
[20] = system: MDA-MB-435

Measured: GI50

C/C(CN1C(=O)c2ccccc2C1=O)=N\NS(=O)(=O)c1cccc(C(=O)O)c1
inactive: [1] > 100 µM | [2] > 100 µM | [3] > 100 µM | [4] > 100 µM | [5] > 100 µM | [6] > 100 µM | [7] > 100 µM | [8] > 100 µM | [9] > 100 µM | [10] > 100 µM | [11] > 100 µM | [12] > 100 µM | [13] > 100 µM | [14] > 100 µM | [15] > 100 µM

O=C(CC1S/C(=N\c2ccccc2Cl)NC1=O)Nc1ccc(Cl)cc1 (centres undefined)
inactive: [1] > 100 µM | [2] > 100 µM | [3] 26.4 µM | [4] 64 µM | [5] 10.6 µM | [6] > 100 µM | [8] 38.9 µM | [16] 99.3 µM | [10] > 100 µM | [11] > 100 µM | [12] 79.1 µM | [13] > 100 µM | [14] > 100 µM | [15] > 100 µM

CC(=O)NNc1nc(C)c(C(=O)NNC(=O)C(=O)Nc2c(Cl)cc([N+](=O)[O-])cc2Cl)s1
inactive: [1] 31.8 µM | [2] 34.8 µM | [3] 36.3 µM | [4] 37.8 µM | [5] 24.5 µM | [6] 32.6 µM | [7] 21 µM | [8] 22.1 µM | [9] 30.4 µM | [16] 25.6 µM | [10] 40 µM | [11] 43.2 µM | [12] 36 µM | [14] 29.9 µM | [15] 31.6 µM

NCCCNCCCCN(CCCN)/[N+]([O-])=N\O
inactive: [1] > 100 µM | [2] > 100 µM | [3] > 100 µM | [4] > 100 µM | [5] > 100 µM | [6] > 100 µM | [7] > 100 µM | [8] > 100 µM | [9] > 100 µM | [10] > 100 µM | [11] > 100 µM | [12] > 100 µM | [13] > 100 µM | [14] > 100 µM | [15] > 100 µM

COc1nc(NC2OC(COC(C)=O)C(OC(C)=O)C(OC(C)=O)C2OC(C)=O)c(/N=C/C=N/c2c(NC3OC(COC(C)=O)C(OC(C)=O)C(OC(C)=O)C3OC(C)=O)nc(OC)[nH]c2=O)c(=O)[nH]1 (centres undefined)
inactive: [1] > 100 µM | [2] > 100 µM | [3] > 100 µM | [4] > 100 µM | [5] > 100 µM | [6] > 100 µM | [7] > 100 µM | [8] > 100 µM | [9] > 100 µM | [16] > 100 µM | [10] > 100 µM | [12] > 100 µM | [13] > 100 µM | [14] > 100 µM | [15] > 100 µM

Cc1cc(C)c(C(=O)O)c(SSc2cc(C)cc(C)c2C(=O)O)c1
inactive: [1] 57.7 µM | [2] > 100 µM | [3] > 100 µM | [4] > 100 µM | [5] > 100 µM | [6] > 100 µM | [8] > 100 µM | [9] > 100 µM | [16] > 100 µM | [10] > 100 µM | [11] > 100 µM | [12] > 100 µM | [13] > 100 µM | [14] > 100 µM | [15] > 100 µM

ClCCC[Si]12OCCN(CCO1)CCO2
inactive: [1] > 100 µM | [2] > 100 µM | [3] > 100 µM | [4] > 100 µM | [5] > 100 µM | [6] > 100 µM | [7] > 100 µM | [9] > 100 µM | [10] > 100 µM | [11] > 100 µM | [12] > 100 µM | [13] > 100 µM | [14] > 100 µM | [15] > 100 µM

Cc1c(-c2cc(-c3ccccc3)n[nH]c2=O)c2ccccc2n1C
inactive: [1] > 100 µM | [2] > 100 µM | [3] > 100 µM | [4] > 100 µM | [5] > 100 µM | [6] > 100 µM | [7] > 100 µM | [8] > 100 µM | [9] > 100 µM | [10] > 100 µM | [11] > 100 µM | [12] > 100 µM | [13] > 100 µM | [14] > 100 µM | [15] > 100 µM

O=C(CC(=O)C(=O)Nc1ccccc1)CC(c1ccccc1)c1c(O)c2ccccc2oc1=O (centres undefined)
inactive: [1] > 100 µM | [2] > 100 µM | [3] > 100 µM | [4] > 100 µM | [5] > 100 µM | [6] > 100 µM | [7] > 100 µM | [9] > 100 µM | [16] > 100 µM | [10] > 100 µM | [11] > 100 µM | [12] > 100 µM | [13] > 100 µM | [14] > 100 µM | [15] > 100 µM

C=C1C(OC(=O)/C=C/c2ccccc2)CC(OC(C)=O)C2(C)C1CC1CC(OC(C)=O)C(C)=C(C(OC(C)=O)C2OC(C)=O)C1(C)C (centres undefined)
inactive: [1] 5.25 µM | [2] > 100 µM | [3] 34 µM | [4] > 100 µM | [5] > 100 µM | [6] 5.97 µM | [9] 4.61 µM | [16] > 100 µM | [10] 4.1 µM | [11] 6.67 µM | [12] 5.25 µM | [14] > 100 µM | [15] 5.45 µM

N#Cc1ccc(Sc2nc3ccccc3[nH]2)cc1
inactive: [1] > 100 µM | [2] > 100 µM | [3] > 100 µM | [4] > 100 µM | [5] > 100 µM | [6] 65 µM | [8] > 100 µM | [9] 94 µM | [16] > 100 µM | [10] 34.4 µM | [11] 79.6 µM | [12] > 100 µM | [13] > 100 µM | [14] 41.7 µM | [15] 78.2 µM

CCN1c2ccccc2C(C(SC)S(=O)(=O)c2ccc(C)cc2)c2c1[nH]c(=O)n(C)c2=O (centres undefined)
inactive: [1] > 100 µM | [2] > 100 µM | [3] > 100 µM | [4] > 100 µM | [5] > 100 µM | [6] > 100 µM | [7] > 100 µM | [8] > 100 µM | [9] 94 µM | [16] > 100 µM | [10] > 100 µM | [12] > 100 µM | [13] > 100 µM | [14] > 100 µM | [15] > 100 µM

COc1ccc(/C=C2\N=C(c3ccccc3)N(Nc3nnc(NN4C(=O)/C(=C/c5ccc(OC)cc5)N=C4c4ccccc4)c4ccccc34)C2=O)cc1
inactive: [1] 30.7 µM | [2] > 100 µM | [3] > 100 µM | [4] 57.5 µM | [5] 55.2 µM | [6] 61 µM | [8] 53.2 µM | [9] 29.6 µM | [16] 20.7 µM | [10] 48.5 µM | [11] > 100 µM | [12] 38.1 µM | [13] 42.3 µM | [14] 70.5 µM | [15] > 100 µM

O=C1C[C@@H]2[C@@H](C=CC23CC3)N1O
inactive: [1] > 100 µM | [2] > 100 µM | [3] > 100 µM | [4] > 100 µM | [5] > 100 µM | [8] > 100 µM | [9] > 100 µM | [16] > 100 µM | [10] > 100 µM | [11] > 100 µM | [12] > 100 µM | [13] > 100 µM | [14] > 100 µM | [15] > 100 µM

COc1ccc(C2c3cc4c(cc3OC(N3CCOCC3)C2C)OCO4)c(OC)c1 (centres undefined)
inactive: [1] 3.5 µM | [2] 3.48 µM | [3] 9.33 µM | [4] 3.48 µM | [17] 4.59 µM | [18] 2.71 µM | [5] 3.72 µM | [19] 5.83 µM | [7] 3.48 µM | [8] 10 µM | [9] 3.58 µM | [16] 4.27 µM | [10] 2.81 µM | [20] 2.14 µM | [11] 5.12 µM | [12] 3.02 µM | [14] 5.56 µM | [15] 7.43 µM

COP(=O)(OC)[C@@](O)(c1ccccc1)[C@@H](O)[C@H](O)c1ccccc1
inactive: [1] 18.3 µM | [2] > 100 µM | [3] > 100 µM | [4] > 100 µM | [17] 22.5 µM | [18] > 100 µM | [5] 42.2 µM | [19] > 100 µM | [7] > 100 µM | [8] > 100 µM | [9] > 100 µM | [16] 21.1 µM | [10] > 100 µM | [20] > 100 µM | [11] > 100 µM | [12] 60.1 µM | [14] > 100 µM | [15] > 100 µM

CC1(CNCc2ccccc2)CC(CCc2ccccc2)N(C(=O)c2ccc([N+](=O)[O-])cc2)C1Cc1ccc(O)cc1 (centres undefined)
inactive: [1] 23.2 µM | [2] 11.2 µM | [3] 6.5 µM | [4] 5.65 µM | [17] 5.24 µM | [18] 14.7 µM | [5] 21.5 µM | [19] 5.32 µM | [7] 12.1 µM | [8] 9.91 µM | [9] 13.2 µM | [16] 12.6 µM | [10] 5.35 µM | [20] 14.2 µM | [11] 14 µM | [12] 33.7 µM | [14] 13.1 µM | [15] 10.4 µM
